These results are taken from patent publication US20230365541A1, “INHIBITOR OF ENHANCER OF ZESTE HOMOLOGUE 2, AND USE THEREOF” (HAISCO PHARMACEUTICALS PTE. LTD., priority 2020, published 2023).

Structures are written as SMILES. pIC50: −log10 of the molar value.

In this assay the target is EZH2 (Homo sapiens (Human), UniProt Q15910). As to the kind of experiment: Test method for EZH2 enzyme activity. It is filed as biochemical. Conditions: H3K27(21-44) and [3H]-SAM. The procedure: The compounds were dissolved in DMSO, formulated into 10 mM solutions and serially diluted with DMSO to obtain 100-fold the final concentration. 200 nL of the solutions of the compounds was transferred to a 384-well plate (Perkin Elmer, Cat. No. 6007299) by using Echo550. EZH2 (BPS, Cat. No. 51004) was diluted with 1×assay buffer (50 mM Tris-HCl 9.0, 0.01% Tween-20, 1 mM DTT) to 2-fold the final concentration (EZH2: 3 nM). A mixed solution of H3K27(21-44) and [3H]-SAM (PerkinElmer, Lot. No. 2146246) (H3K27(21-44): 200 nM, [3H]-SAM: 100 nM) was formulated. The EZH2 diluted solution was taken and added to the 384-well plate at 10 μL/well (10 μL of 1×assay buffer was added in the control group). The plate was sealed and then incubated at room temperature for 15 minutes. 10 μL of the mixed solution of H3K27 (21-44) and [3H]-SAM was added to each well. The plate was sealed and then incubated at room temperature for 60 minutes. 50 μM of SAM (Sigma, Cat. No. A7007) was formulated at low temperature and added to the 384-well plate at 10 μL/well. The sample was taken at 25 μL/well, transferred to a flashplate and incubated at room temperature for at least 1 hour. The flashplate was washed 3 times with a plate washing liquid (dH2O+0.1% Tween-20) and read by using Microbeta. The inhibition rate was calculated in Excel according to: inhibition rate (%)=(maximum valuepositive control−detection signal value)/(maximum valuepositive control−minimum valuenegative control)*100, and IC50 values were fitted by using XL-Fit.
Chain of EZH2 (Q15910 other isoform, or with tags, fused parts or gaps isoform Q15910-2): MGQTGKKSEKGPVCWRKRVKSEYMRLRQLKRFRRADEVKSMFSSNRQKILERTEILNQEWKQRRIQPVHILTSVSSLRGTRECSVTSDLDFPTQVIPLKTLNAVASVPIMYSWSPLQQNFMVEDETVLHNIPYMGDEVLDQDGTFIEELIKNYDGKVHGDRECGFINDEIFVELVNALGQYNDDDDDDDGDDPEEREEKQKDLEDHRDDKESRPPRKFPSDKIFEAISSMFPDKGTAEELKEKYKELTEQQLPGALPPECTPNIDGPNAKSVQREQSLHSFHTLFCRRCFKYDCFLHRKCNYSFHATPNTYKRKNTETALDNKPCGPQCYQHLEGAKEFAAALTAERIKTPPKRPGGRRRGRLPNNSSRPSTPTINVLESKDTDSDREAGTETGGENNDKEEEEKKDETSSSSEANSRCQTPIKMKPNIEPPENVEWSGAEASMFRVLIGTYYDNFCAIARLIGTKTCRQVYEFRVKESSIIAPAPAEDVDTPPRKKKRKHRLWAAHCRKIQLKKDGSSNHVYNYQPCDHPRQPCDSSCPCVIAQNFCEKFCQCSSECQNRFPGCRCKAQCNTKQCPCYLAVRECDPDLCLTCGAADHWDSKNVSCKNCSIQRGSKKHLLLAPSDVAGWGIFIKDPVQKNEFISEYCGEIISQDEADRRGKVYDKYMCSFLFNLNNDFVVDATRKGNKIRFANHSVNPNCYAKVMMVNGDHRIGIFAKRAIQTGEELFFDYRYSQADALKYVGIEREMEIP
Chain of EZH2 (O75530 2-441 partner): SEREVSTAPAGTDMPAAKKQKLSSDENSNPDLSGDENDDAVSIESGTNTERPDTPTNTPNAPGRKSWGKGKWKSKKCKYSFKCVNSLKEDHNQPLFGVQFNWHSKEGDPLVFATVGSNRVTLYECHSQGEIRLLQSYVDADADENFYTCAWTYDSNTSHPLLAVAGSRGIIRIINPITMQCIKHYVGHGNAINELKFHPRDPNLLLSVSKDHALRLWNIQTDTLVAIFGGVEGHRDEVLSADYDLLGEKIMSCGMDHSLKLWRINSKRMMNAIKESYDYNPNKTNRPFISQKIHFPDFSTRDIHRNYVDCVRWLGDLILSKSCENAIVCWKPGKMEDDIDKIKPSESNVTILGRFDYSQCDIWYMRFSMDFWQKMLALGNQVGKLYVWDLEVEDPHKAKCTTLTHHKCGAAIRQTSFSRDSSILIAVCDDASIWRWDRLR
Chain of EZH2 (Q15022 2-739 partner): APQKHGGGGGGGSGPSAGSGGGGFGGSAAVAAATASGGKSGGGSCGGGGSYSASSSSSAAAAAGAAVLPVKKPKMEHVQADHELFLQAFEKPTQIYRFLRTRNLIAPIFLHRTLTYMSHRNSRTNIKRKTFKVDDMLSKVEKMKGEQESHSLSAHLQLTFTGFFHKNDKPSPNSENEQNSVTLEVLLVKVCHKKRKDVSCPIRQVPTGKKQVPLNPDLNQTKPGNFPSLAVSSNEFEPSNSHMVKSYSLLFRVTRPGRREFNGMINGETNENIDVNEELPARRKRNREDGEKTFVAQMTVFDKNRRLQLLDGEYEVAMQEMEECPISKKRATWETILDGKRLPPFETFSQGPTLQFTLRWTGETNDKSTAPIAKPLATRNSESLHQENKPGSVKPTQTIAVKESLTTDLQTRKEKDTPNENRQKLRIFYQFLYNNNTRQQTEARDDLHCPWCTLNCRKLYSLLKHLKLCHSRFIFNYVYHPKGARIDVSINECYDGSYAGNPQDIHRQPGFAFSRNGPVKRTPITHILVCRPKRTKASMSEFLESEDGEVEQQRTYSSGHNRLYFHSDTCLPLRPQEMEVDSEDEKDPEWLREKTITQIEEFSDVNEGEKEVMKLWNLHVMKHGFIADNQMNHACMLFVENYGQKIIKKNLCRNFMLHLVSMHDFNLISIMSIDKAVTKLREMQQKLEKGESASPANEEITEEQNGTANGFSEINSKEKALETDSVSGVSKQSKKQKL
Chain of EZH2 (Q09028 2-425 partner): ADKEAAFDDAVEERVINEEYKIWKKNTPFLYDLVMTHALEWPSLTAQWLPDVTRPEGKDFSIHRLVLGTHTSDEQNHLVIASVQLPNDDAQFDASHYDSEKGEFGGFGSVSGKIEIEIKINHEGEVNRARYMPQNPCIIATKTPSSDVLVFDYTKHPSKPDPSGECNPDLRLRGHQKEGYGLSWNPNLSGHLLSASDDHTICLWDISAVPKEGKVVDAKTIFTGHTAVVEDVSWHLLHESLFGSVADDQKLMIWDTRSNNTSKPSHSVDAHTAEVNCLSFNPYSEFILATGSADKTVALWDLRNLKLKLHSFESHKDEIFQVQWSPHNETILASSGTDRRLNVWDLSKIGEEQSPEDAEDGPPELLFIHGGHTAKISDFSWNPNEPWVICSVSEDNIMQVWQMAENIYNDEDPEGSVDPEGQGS
Chain of EZH2 (Q6ZN18 whole entry partner): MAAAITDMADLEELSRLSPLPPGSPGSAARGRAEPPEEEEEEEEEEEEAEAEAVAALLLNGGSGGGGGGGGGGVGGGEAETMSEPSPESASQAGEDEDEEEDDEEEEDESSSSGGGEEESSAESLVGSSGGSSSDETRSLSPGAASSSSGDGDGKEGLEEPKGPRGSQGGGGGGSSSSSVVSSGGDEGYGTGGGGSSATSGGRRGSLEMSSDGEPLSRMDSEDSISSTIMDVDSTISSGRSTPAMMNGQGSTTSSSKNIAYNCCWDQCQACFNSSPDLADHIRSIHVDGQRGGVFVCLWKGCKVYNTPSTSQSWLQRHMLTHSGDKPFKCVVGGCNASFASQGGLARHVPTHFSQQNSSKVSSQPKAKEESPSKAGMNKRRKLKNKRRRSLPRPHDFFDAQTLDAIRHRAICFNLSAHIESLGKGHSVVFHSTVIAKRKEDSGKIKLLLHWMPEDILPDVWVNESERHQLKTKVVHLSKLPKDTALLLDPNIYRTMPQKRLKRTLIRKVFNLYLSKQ

In turn, `CSc1cc(C)[nH]c(=O)c1CNC(=O)c1cc(Cl)c2c(c1C)OC(C)([C@H]1CC[C@@H](N3CC4CN(C)CC4C3)CC1)O2` (single isomer, unassigned) [Compound 42, isomer 1, 7-chloro-2,4-dimethyl-N-((6-methyl-4-(methylthio)-2-oxo-1,2-dihydropyridin-3-yl)methyl)-2-(4-(5-methylhexahydropyrrolo[3,4-c]pyrrol-2(1H)-yl)cyclohexyl)benzo[d][1,3]dioxole-5-carboxamide] had a pIC50 of 9.47. The figure for `CSc1cc(C)[nH]c(=O)c1CNC(=O)c1cc(Cl)c2c(c1C)OC(C)([C@H]1CC[C@@H](N3CC4CN(C)CC4C3)CC1)O2` (single isomer, unassigned) [Compound 42, isomer 2, 7-chloro-2,4-dimethyl-N-((6-methyl-4-(methylthio)-2-oxo-1,2-dihydropyridin-3-yl)methyl)-2-(4-(5-methylhexahydropyrrolo[3,4-c]pyrrol-2(1H)-yl)cyclohexyl)benzo[d][1,3]dioxole-5-carboxamide] is 9.64; for `CSc1cc(C)[nH]c(=O)c1CNC(=O)c1cc(Cl)c2c(c1C)OC(C)([C@H]1CC[C@@H](N3CC(N4CCCC4)C3)CC1)O2` (single isomer, unassigned) [Compound 43, isomer 2, 7-chloro-2,4-dimethyl-N-((6-methyl-4-(methylthio)-2-oxo-1,2-dihydropyridin-3-yl)methyl)-2-(4-(3-(pyrrolidin-1-yl)azetidin-1-yl)cyclohexyl)benzo[d][1,3]dioxole-5-carboxamide] it is 9.38; for `CSc1cc(C)[nH]c(=O)c1CNC(=O)c1cc(Cl)c2c(c1C)OC(C)(C1CCC(N[C@H]3C[C@H](O)C3)CC1)O2` (single isomer, unassigned) [Compound 45, isomer 1, 7-chloro-2-(4-((trans-3-hydroxycyclobutyl)amino)cyclohexyl)-2,4-dimethyl-N-((6-methyl-4-(methylthio)-2-oxo-1,2-dihydropyridin-3-yl)methyl)benzo[d][1,3]dioxole-5-carboxamide] it is 9.55. The figure for `CSc1cc(C)[nH]c(=O)c1CNC(=O)c1cc(Cl)c2c(c1C)OC(C)(C1CCC(N[C@H]3C[C@H](O)C3)CC1)O2` (single isomer, unassigned) [Compound 45, isomer 2, 7-chloro-2-(4-((trans-3-hydroxycyclobutyl)amino)cyclohexyl)-2,4-dimethyl-N-((6-methyl-4-(methylthio)-2-oxo-1,2-dihydropyridin-3-yl)methyl)benzo[d][1,3]dioxole-5-carboxamide] is 9.46. Take `CSc1cc(C)[nH]c(=O)c1CNC(=O)c1cc(Cl)c2c(c1C)OC(C)([C@H]1CC[C@@H](N3CC[Si](C)(C)CC3)CC1)O2` (single isomer, unassigned) [Compound 49, isomer 1, 7-chloro-2-(4-(4,4-dimethyl-1,4-azasilinan-1-yl)cyclohexyl)-2,4-dimethyl-N-((6-methyl-4-(methylthio)-2-oxo-1,2-dihydropyridin-3-yl)methyl)benzo[d][1,3]dioxole-5-carboxamide]: the pIC50 was 9.29. The figure for `[2H]C([2H])(NC(=O)c1cc(Cl)c2c(c1C)OC(C)([C@H]1CC[C@@H](CN3CCOCC3)CC1)O2)c1c(SC)cc(C)[nH]c1=O` (single isomer, unassigned) [Compound 57, isomer 1, 7-chloro-2,4-dimethyl-N-((6-methyl-4-(methylthio)-2-oxo-1,2-dihydropyridin-3-yl)methyl-d2)-2-(4-(morpholinomethyl)cyclohexyl)benzo[d][1,3]dioxole-5-carboxamide] is 9.34. The figure for `[2H]C([2H])(NC(=O)c1cc(Cl)c2c(c1C)OC(C)([C@H]1CC[C@@H](CN3CCOCC3)CC1)O2)c1c(SC)cc(C)[nH]c1=O` (single isomer, unassigned) [Compound 57, isomer 2, 7-chloro-2,4-dimethyl-N-((6-methyl-4-(methylthio)-2-oxo-1,2-dihydropyridin-3-yl)methyl-d2)-2-(4-(morpholinomethyl)cyclohexyl)benzo[d][1,3]dioxole-5-carboxamide] is 9.31.

`CSc1cc(C)[nH]c(=O)c1CNC(=O)c1cc(Cl)c2c(c1C)OC(C)(C1CCC(NC3COC3)CC1)O2` (single isomer, unassigned) [Compound 61, isomer 1, 7-chloro-2,4-dimethyl-N-((6-methyl-4-(methylthio)-2-oxo-1,2-dihydropyridin-3-yl)methyl)-2-(4-(oxetan-3-ylamino)cyclohexyl)benzo[d][1,3]dioxole-5-carboxamide]: the pIC50 is 9.28. The figure for `CSc1cc(C)[nH]c(=O)c1CNC(=O)c1cc(Cl)c2c(c1C)OC(C)(C1CCC(NC3COC3)CC1)O2` (single isomer, unassigned) [Compound 61, isomer 2, 7-chloro-2,4-dimethyl-N-((6-methyl-4-(methylthio)-2-oxo-1,2-dihydropyridin-3-yl)methyl)-2-(4-(oxetan-3-ylamino)cyclohexyl)benzo[d][1,3]dioxole-5-carboxamide] is 9.60; for `CSc1cc(C)[nH]c(=O)c1CNC(=O)c1cc(Cl)c2c(c1C)OC(C)(C1CCN(C(=O)C3CC(F)(F)C3)CC1)O2` (single isomer, unassigned; isomer 1) [Compound 11, isomer 1, 7-chloro-2-(1-(3,3-difluorocyclobutane-1-carbonyl)piperidin-4-yl)-2,4-dimethyl-N-((6-methyl-4-(methylthio)-2-oxo-1,2-dihydropyridin-3-yl)methyl)benzo[d][1,3]dioxole-5-carboxamide] it is 9.14; for `CSc1cc(C)[nH]c(=O)c1CNC(=O)c1cc(Cl)c2c(c1C)OC(C)(C1CCN(C(=O)C3CC(F)(F)C3)CC1)O2` (single isomer, unassigned; isomer 2) [Compound 11, isomer 2, 7-chloro-2-(1-(3,3-difluorocyclobutane-1-carbonyl)piperidin-4-yl)-2,4-dimethyl-N-((6-methyl-4-(methylthio)-2-oxo-1,2-dihydropyridin-3-yl)methyl)benzo[d][1,3]dioxole-5-carboxamide] it is 9.06. `CSc1cc(C)[nH]c(=O)c1CNC(=O)c1cc(Cl)c2c(c1C)OC(C)([C@H]1CC[C@@H](C(=O)N3CC(F)(F)C3)CC1)O2` (single isomer, unassigned; isomer 2) [Compound 47, isomer 2, 7-chloro-2-(4-(3,3-difluoroazetidine-1-carbonyl)cyclohexyl)-2,4-dimethyl-N-(di-deuterated(6-methyl-4-(methylthio)-2-oxo-1,2-dihydropyridin-3-yl)di-deuterated-methyl)benzo[d][1,3]dioxole-5-carboxamide] gave a negative logarithm of the IC50 (pIC50) of 9.04. `CSc1cc(C)[nH]c(=O)c1CNC(=O)c1cc(Cl)c2c(c1C)OC(C)(C1CCN(C(=O)c3csc(C)n3)CC1)O2` (stereo not drawn) [Compound 21, 7-chloro-2,4-dimethyl-N-((6-methyl-4-(methylthio)-2-oxo-1,2-dihydropyridin-3-yl)methyl)-2-(1-(2-methylthiazole-4-carbonyl)piperidin-4-yl)benzo[d][1,3]dioxole-5-carboxamide] showed a negative-log IC50 (pIC50) of 9.21. The figure for `CSc1cc(C)[nH]c(=O)c1CNC(=O)c1cc(Cl)c2c(c1C)OC(C)(C1CCN(C3CC3)CC1)O2` (stereo not drawn) [Compound 24, 7-chloro-2-(1-cyclopropylpiperidin-4-yl)-2,4-dimethyl-N-((6-methyl-4-(methylthio)-2-oxo-1,2-dihydropyridin-3-yl)methyl)benzo[d][1,3]dioxole-5-carboxamide] is 9.24; for `[2H]C([2H])(NC(=O)c1cc(Cl)c2c(c1C)OC(C)(C1CCN(CC3CC(F)(F)C3)CC1)O2)c1c(SC)cc(C)[nH]c1=O` (stereo not drawn) [Compound 28, 7-chloro-2-(1-((3,3-difluorocyclobutyl)methyl)piperidin-4-yl)-2,4-dimethyl-N-((6-methyl-4-(methylthio)-2-oxo-1,2-dihydropyridin-3-yl)methyl-d2)benzo[d][1,3]dioxole-5-carboxamide] it is 9.31. The figure for `CSc1cc(C)[nH]c(=O)c1CNC(=O)c1cc(Cl)c2c(c1C)OC(C)(C1CCN(CC3(F)CC3)CC1)O2` (stereo not drawn) [Compound 32, 7-chloro-2-(1-((1-fluorocyclopropyl)methyl)piperidin-4-yl)-2,4-dimethyl-N-((6-methyl-4-(methylthio)-2-oxo-1,2-dihydropyridin-3-yl)methyl)benzo[d][1,3]dioxole-5-carboxamide] is 9.24; for `COC1CC(N2CCC(C3(C)Oc4c(Cl)cc(C(=O)NCc5c(SC)cc(C)[nH]c5=O)c(C)c4O3)CC2)C1` (stereo not drawn) [Compound 33, 7-chloro-2-(1-(3-methoxycyclobutyl)piperidin-4-yl)-2,4-dimethyl-N-((6-methyl-4-(methylthio)-2-oxo-1,2-dihydropyridin-3-yl)methyl)benzo[d][1,3]dioxole-5-carboxamide] it is 9.24.
